US20230303598A1, “BIOINSPIRED LIPID DERIVATIVES AND USES THEREOF” (Ohio State Innovation Foundation, priority 2020, published 2023)

System: Hep3b cells
Test: in vitro mRNA delivery screening of ionizable lipid LNPs with mRNA encoding firefly luciferase
Assay type: cell-based
Details: LNPs of compound/DOPE/cholesterol/PEG-lipid at ratios 20:30:40:0.75, 40:30:40:0.75 and 60:30:40:0.75, Hep3b cells (FIGS. 1-3)
Excerpt: FIG. 1 illustrates the results of in vitro mRNA delivery screening of ionizable lipids in Hep3b cells at a ratio of 20:30:40:0.75 (compound/DOPE/cholesterol/PEG-lipid).
FIG. 2 illustrates the results of in vitro mRNA delivery screening of ionizable lipids in Hep3b cells at a ratio of 40:30:40:0.75 (compound/DOPE/cholesterol/PEG-lipid).
FIG. 3 illustrates the results of in vitro mRNA delivery screening of ionizable lipids in Hep3b cells at a ratio of 60:30:40:0.75 (compound/DOPE/cholesterol/PEG-lipid).
Phosphates and phosporamide lipid-like compounds First, forty ionizable lipids were synthesized. Then, these ionizable lipids were formulated with DOPE/cholesterol/PEG-lipid at three different ratios (20:30:40:0.75, 40:30:40:0.75, and 60:30:40:0.75) to prepare lipid nanoparticles (LNPs) and screened in Hep3b cells using mRNA-encoding firefly luciferase.

Q: Which mRNA delivery effectiveness does the source give for `CCCCCCCC/C=C\CCCCCCCCOP(=O)(OCCCCCCCC/C=C\CCCCCCCC)OCCN(C)C` [ZYB20200113-1] here?
A: more effective for mRNA delivery than other ionizable lipids
